Assay results: patent publication US11576903B2, “Amorphous kinase inhibitor formulations and methods of use thereof” (Deciphera Pharmaceuticals, LLC, priority 2019, dated 2023)
Values after ≈ are worked out from the molar mass of the structure shown.

What was measured:
[1] = Kinetic aqueous solubility at select pH; type: physicochemical; details: aqueous medium, kinetic from dmso stock, 25° C.
Method: Solubility of a solid dispersion of amorphous Compound 1 (25%)/HPMCAS-HG as prepared in Example 1, at select pH values was evaluated.

[2] = Pharmacokinetic study after oral administration to rats; details: rat, in vivo, 10 mg/kg (Compound 1 basis), oral suspension
Method: Studies comparing the pharmacokinetics of crystalline Compound 1 and solid dispersion of amorphous Compound 1 (25%) as prepared in Example 1 were conducted in rats. The dose in both studies were 10 mg/kg (Compound 1 basis). Rats were administered Crystalline Compound 1 as an oral suspension in a vehicle of 20% Captisol/0.4% HPMC at pH 2. Rats were administered amorphous Compound 1 as an oral suspension using in a 0.5% Methocel vehicle.

CCn1c(=O)c(-c2cc(NC(=O)Nc3ccccc3)c(F)cc2Br)cc2cnc(NC)cc21 [Crystalline Compound 1]
solubility kinetic ([1]; aqueous buffer, pH 6.5, aqueous): 1 µg/mL (≈ 1.96 µM) | solubility kinetic ([1]; simulated gastric fluid, pH 2, aqueous): 6 µg/mL (≈ 11.8 µM) | AUC(0-inf) [2]: 131 ng·h/mL | AUC(0-t) [2]: 111 ng·h/mL | Cmax [2]: 20.2 ng/mL | Tmax [2]: 1.67 h | half-life [2]: 8.76 h
